How the values were obtained:
[1] = tested on: SARS-CoV-2 viral replication; conditions: cited from earlier work
SARS-CoV-2 PLpro = SARS-CoV-2 PLpro (Severe acute respiratory syndrome coronavirus 2, UniProt P0DTD1); experiment: FRET-based PLpro enzymatic assay; format: biochemical; conditions: 200 nM PLpro, 10 μM FRET substrate, 30 min preincubation at 30° C.; read-out: IC50
Summary of the method: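 200 nM PLpro in 50 mM Hepes pH 7.5, 0.01% Triton X-100, 5 mM DTT, preincubated with compound 30 min at 30 °C; 10 μM final FRET substrate.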

[2] = Cytotoxicity assay in Vero E6 cells (neutral red uptake); format: cell-based; conditions: African green monkey; Vero E6 cells, 2 days at 37° C., neutral red uptake; read-out: Vero CC50

For `Cc1ccc(N)cc1C(=O)N[C@H](C)c1cccc2ccccc12` [GRL0617], the EC50 [1] is given as roughly 20 µM.

For `Cc1ccc(OCCN(C)C)cc1C(=O)N[C@H](C)c1cc(-c2ccc(N)nc2)nc2ccccc12` [Example 9, (R)—N-(1-(2-(6-aminopyridin-3-yl)quinolin-4-yl)ethyl)-5-(2-(dimethylamino)ethoxy)-2-methylbenzamide], the IC50 (SARS-CoV-2 PLpro) was less than 500 nM and the CC50 at 2 days [2] was 36.2 ± 6.83 µM.

In the case of `Cc1ccc(N(C)CC2CN(C)C2)cc1C(=O)N[C@H](C)c1cc(-c2cnn(C)c2)nc2ccccc12` [Example 89, (R)-2-methyl-5-(methyl((1-methylazetidin-3-yl)methyl)amino)-N-(1-(2-(1-methyl-1H-pyrazol-4-yl)quinolin-4-yl)ethyl)benzamide], the IC50 (SARS-CoV-2 PLpro) is reported as 1000 to 5000 nM and the CC50 at 2 days [2] is reported as 89.3 µM.

Work on `Cc1ccc(OCCN(C)C)cc1C(=O)N[C@H](C)c1cc(-c2cnn(C3CC3)c2)nc2ccccc12` [Example 8, (R)—N-(1-(2-(1-cyclopropyl-1H-pyrazol-4-yl)quinolin-4-yl)ethyl)-5-(2-(dimethylamino)ethoxy)-2-methylbenzamide] yielded an IC50 (SARS-CoV-2 PLpro) of less than 500 nM and a CC50 at 2 days [2] of 63.1 ± 8.7 µM.

Work on `Cc1ccc(OCCN(C)C)cc1C(=O)N[C@H](C)c1cc(-c2cnn(C(C)C)c2)nc2ccccc12` [Example 14, (R)-5-(2-(dimethylamino)ethoxy)-N-(1-(2-(1-isopropyl-1H-pyrazol-4-yl)quinolin-4-yl)ethyl)-2-methylbenzamide] yielded an IC50 (SARS-CoV-2 PLpro) of less than 500 nM and a CC50 at 2 days [2] of 37.7 ± 5.87 µM.

Reference: US20240382494A1, “THERAPEUTIC COMPOUNDS” (priority 2023, published 2024)
